The numbers were not newly measured in patent US20230364135A1, “GUT-SELECTIVE SEQUESTERING AGENTS FOR THE TREATMENT AND PREVENTION OF AUTISM AND RELATED DISORDERS” (Axial Biotherapeutics, Inc., priority 2017, published 2023), which cites them from elsewhere.

The subject of this series is naïve, wild-type mice. The note with it: single bolus injection intraperitoneally.

Consider `CCc1ccc(OS(=O)(=O)[O-])cc1.[K+]` [4-EPS, 4-ethylphenylsulfate], for which the “core symptoms of autism spectrum disorder” value is listed as “did not engender any core symptoms of autism spectrum disorder” and the symptoms of anxiety result is reported as “engendered symptoms of anxiety”.
